Laboratory results taken from PubChem BioAssay AID330 (DTP/NCI, 2004).
Where “and” joins values, the source holds several entries; their conditions need not be identical. Identical values can stand only once. Inconclusive results and toxic doses are left out.

Tested on: P388 leukemia ip, CD2F1 mice, survival T/C
Test: NCI In Vivo Anticancer Drug Screen. Data for tumor model P388 Leukemia (intraperitoneal) in CD2F1 (CDF1) mice
Conditions: endpoint: median survival time, higher = longer survival
In short: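 Mice carrying the transplanted tumor received test compound or vehicle. Survival was recorded in each group, and the value is the treated-group measurement divided by that of the vehicle-treated control group.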

[1] = dose: 50.0 mg/kg/injection, schedule: Q01DX009 (ip), vehicle: Klucel (hydroxypropylcellulose) (HPC)
[2] = dose: 100.0 mg/kg/injection, schedule: Q01DX009 (ip), vehicle: Klucel (hydroxypropylcellulose) (HPC)
[3] = dose: 3.75 mg/kg/injection, schedule: Q01DX005 (ip), vehicle: saline with Tween-80
[4] = dose: 7.5 mg/kg/injection, schedule: Q01DX005 (ip), vehicle: saline with Tween-80
[5] = dose: 50.0 mg/kg/injection, schedule: Q01DX005 (ip), vehicle: saline with Tween-80
[6] = dose: 100.0 mg/kg/injection, schedule: Q01DX005 (ip), vehicle: saline with Tween-80
[7] = dose: 200.0 mg/kg/injection, schedule: Q01DX005 (ip), vehicle: saline with Tween-80

## C=CC(=O)OCCCCCCCCCC
dose: 100.0 mg/kg/injection, schedule: Q04DX003 (ip), vehicle: Klucel (hydroxypropylcellulose) (HPC)
  T/C: 101 % of control
dose: 200.0 mg/kg/injection, schedule: Q04DX003 (ip), vehicle: Klucel (hydroxypropylcellulose) (HPC)
  T/C: 109 % of control
dose: 400.0 mg/kg/injection, schedule: Q04DX003 (ip), vehicle: Klucel (hydroxypropylcellulose) (HPC)
  T/C: 108 % of control

## CCCCn1c(Cl)c(/C=N\Nc2ccc([N+](=O)[O-])cc2)c2ccccc21
dose: 25.0 mg/kg/injection, schedule: Q01DX001 (ip), vehicle: saline with Tween-80
  T/C: 86 % of control
dose: 100.0 mg/kg/injection, schedule: Q01DX001 (ip), vehicle: saline with Tween-80
  T/C: 103 % of control and 94 % of control

## COC(=O)CCCCCCCCCCN(CCCl)CCCl
dose: 6.25 mg/kg/injection, schedule: Q01DX009 (ip), vehicle: saline
  T/C: 160 % of control and 169 % of control
dose: 12.5 mg/kg/injection, schedule: Q01DX009 (ip), vehicle: saline
  T/C: 89 % of control

## O=C1NC(=O)N(c2cccc(Cl)c2)C1=O
[1]
  T/C: 106 % of control
[2]
  T/C: 109 % of control
dose: 200.0 mg/kg/injection, schedule: Q01DX009 (ip), vehicle: Klucel (hydroxypropylcellulose) (HPC)
  T/C: 102 % of control

## CC12OC(=O)C(C(N)=O)=C1C=C(c1ccccc1)CC2c1ccccc1 (configuration not stated)
dose: 60.0 mg/kg/injection, schedule: Q01DX005 (ip), vehicle: saline with Tween-80
  T/C: 96 % of control
dose: 120.0 mg/kg/injection, schedule: Q01DX005 (ip), vehicle: saline with Tween-80
  T/C: 96 % of control
dose: 240.0 mg/kg/injection, schedule: Q01DX005 (ip), vehicle: saline with Tween-80
  T/C: 89 % of control

## CCCC(=O)N(CCC(N)=O)c1ncc([N+](=O)[O-])s1
dose: 25.0 mg/kg/injection, schedule: Q01DX001 (ip), vehicle: saline
  T/C: 94 % of control
dose: 50.0 mg/kg/injection, schedule: Q01DX001 (ip), vehicle: saline
  T/C: 100 % of control
dose: 100.0 mg/kg/injection, schedule: Q01DX001 (ip), vehicle: saline
  T/C: 100 % of control

## CCOP(=O)(OCC)Oc1c(OC)cc(C2OCCO2)cc1OC
dose: 50.0 mg/kg/injection, schedule: Q01DX009 (ip), vehicle: saline
  T/C: 103 % of control
dose: 100.0 mg/kg/injection, schedule: Q01DX009 (ip), vehicle: saline
  T/C: 103 % of control
dose: 200.0 mg/kg/injection, schedule: Q01DX009 (ip), vehicle: saline
  T/C: 117 % of control

## O=C(c1ccccc1)c1ccc2n[se]nc2c1
[3]
  T/C: 100 % of control
[4]
  T/C: 87 % of control
dose: 15.0 mg/kg/injection, schedule: Q01DX005 (ip), vehicle: saline with Tween-80
  T/C: 97 % of control

## CN(C)c1ccc(C(=C2C=CC(=[N+](C)C)C=C2)c2cc(S(=O)(=O)O)cc3cc(S(=O)(=O)O)ccc23)cc1
[5]
  T/C: 103 % of control
[6]
  T/C: 107 % of control
[7]
  T/C: 100 % of control

## N#CCCCN1C(=O)c2ccccc2C1=O
[1]
  T/C: 102 % of control
[2]
  T/C: 104 % of control

## CSc1cc(C)c(O)c(C)c1
dose: 100.0 mg/kg/injection, schedule: Q04DX003 (ip), vehicle: other
  T/C: 109 % of control
dose: 200.0 mg/kg/injection, schedule: Q04DX003 (ip), vehicle: other
  T/C: 100 % of control
dose: 400.0 mg/kg/injection, schedule: Q04DX003 (ip), vehicle: other
  T/C: 100 % of control

## CCCCCCN(CCCCCC)C(=N)c1ccnc2ccccc12
dose: 12.5 mg/kg/injection, schedule: Q01DX005 (ip), vehicle: saline
  T/C: 92 % of control
dose: 25.0 mg/kg/injection, schedule: Q01DX005 (ip), vehicle: saline
  T/C: 100 % of control
dose: 50.0 mg/kg/injection, schedule: Q01DX005 (ip), vehicle: saline
  T/C: 87 % of control and 94 % of control

## C=C1C(=O)OC2C[C@]3(C)C(CC12)C(=C)C(O)C[C@@H]3OC(=O)C(C)CC (some centres not stated)
[5]
  T/C: 105 % of control
[6]
  T/C: 103 % of control
[7]
  T/C: 111 % of control

## CCCCCCCCCCCCCCCCOc1ccc(OC)cc1C(=O)NNC(=S)SC
dose: 50.0 mg/kg/injection, schedule: Q01DX009 (ip), vehicle: saline + alcohol
  T/C: 100 % of control
dose: 100.0 mg/kg/injection, schedule: Q01DX009 (ip), vehicle: saline + alcohol
  T/C: 103 % of control
dose: 200.0 mg/kg/injection, schedule: Q01DX009 (ip), vehicle: saline + alcohol
  T/C: 87 % of control

## CC1=NCCN1CCNC(=O)c1ccc(C(=O)NCCN2CCN=C2C)cc1
dose: 1.88 mg/kg/injection, schedule: Q01DX005 (ip), vehicle: saline with Tween-80
  T/C: 105 % of control
[3]
  T/C: 100 % of control
[4]
  T/C: 100 % of control and 115 % of control
